Laboratory results as given in PMC10041525, “New Dual Inhibitors of Bacterial Topoisomerases with Broad-Spectrum Antibacterial Activity and In Vivo Efficacy against Vancomycin-Intermediate Staphylococcus aureus” (Journal of Medicinal Chemistry, 2023).
Values after ≈ are worked out from the molar mass of the structure shown.

What was measured:
[1] = formulation solubility study; type: physicochemical
Method: For the actual in vivo assay, a […] pH was used, and the compound was prepared in a formulation of 100 mM carbonate buffer at pH 8.4 with 20% hydroxypropyl β-cyclodextrin.
Solubility analysis was performed on an Acquity UPLC instrument (Waters, Milford, MA, USA). A Waters BEH C18 column (2.1 × 50 mm, 1.7 μm; Waters) was used at T = 40 °C, with the flow rate of 0.5 mL/min; PDA UV detection at λ = 256 nm; mobile phase A: 0.1% formic acid in ultrapure water; mobile phase B: 0.1% formic acid in acetonitrile. Gradient: 0–4 min, 5–100% B; 4–5 min, 100% B; 5–5.1 min, 100–5% B; 5.1–7 min, 5% B.

[2] = tested on: P. aeruginosa PAO1, PAO750; experiment: MIC, wild-type vs efflux-defective; type: cell-based; conditions: Pseudomonas aeruginosa
in vitro = conditions: pH 7.4; for Clint (pred. in vivo) / half-life at 1 h, 1 µM: microsomes
Method: Liver microsomal fractions were purchased from XenoTech LLC, (KS, USA). […] To initiate the reaction, 1 mM NADPH was added. Samples were taken at 0, 5, 10, 20, 40, and 60 min. To terminate the reaction, cold acetonitrile with warfarin as an internal standard was added. LC–MS/MS was used to analyze the samples and determine the amount of remaining parent compound. The LC–MS/MS method was the same as described above in Chapter LogD Determination.

hERG channel = biological target: T1, hERG channel (Homo sapiens, UniProt Q12809); experiment: whole-cell patch-clamp on HEK293 cells; type: cell-based; conditions: 50 µM 7a, mean ± SD
T1 construct: expressed in transfected cells; host or cells: HEK293 cells stably expressing the channel
T1 sequence (Q12809 whole entry): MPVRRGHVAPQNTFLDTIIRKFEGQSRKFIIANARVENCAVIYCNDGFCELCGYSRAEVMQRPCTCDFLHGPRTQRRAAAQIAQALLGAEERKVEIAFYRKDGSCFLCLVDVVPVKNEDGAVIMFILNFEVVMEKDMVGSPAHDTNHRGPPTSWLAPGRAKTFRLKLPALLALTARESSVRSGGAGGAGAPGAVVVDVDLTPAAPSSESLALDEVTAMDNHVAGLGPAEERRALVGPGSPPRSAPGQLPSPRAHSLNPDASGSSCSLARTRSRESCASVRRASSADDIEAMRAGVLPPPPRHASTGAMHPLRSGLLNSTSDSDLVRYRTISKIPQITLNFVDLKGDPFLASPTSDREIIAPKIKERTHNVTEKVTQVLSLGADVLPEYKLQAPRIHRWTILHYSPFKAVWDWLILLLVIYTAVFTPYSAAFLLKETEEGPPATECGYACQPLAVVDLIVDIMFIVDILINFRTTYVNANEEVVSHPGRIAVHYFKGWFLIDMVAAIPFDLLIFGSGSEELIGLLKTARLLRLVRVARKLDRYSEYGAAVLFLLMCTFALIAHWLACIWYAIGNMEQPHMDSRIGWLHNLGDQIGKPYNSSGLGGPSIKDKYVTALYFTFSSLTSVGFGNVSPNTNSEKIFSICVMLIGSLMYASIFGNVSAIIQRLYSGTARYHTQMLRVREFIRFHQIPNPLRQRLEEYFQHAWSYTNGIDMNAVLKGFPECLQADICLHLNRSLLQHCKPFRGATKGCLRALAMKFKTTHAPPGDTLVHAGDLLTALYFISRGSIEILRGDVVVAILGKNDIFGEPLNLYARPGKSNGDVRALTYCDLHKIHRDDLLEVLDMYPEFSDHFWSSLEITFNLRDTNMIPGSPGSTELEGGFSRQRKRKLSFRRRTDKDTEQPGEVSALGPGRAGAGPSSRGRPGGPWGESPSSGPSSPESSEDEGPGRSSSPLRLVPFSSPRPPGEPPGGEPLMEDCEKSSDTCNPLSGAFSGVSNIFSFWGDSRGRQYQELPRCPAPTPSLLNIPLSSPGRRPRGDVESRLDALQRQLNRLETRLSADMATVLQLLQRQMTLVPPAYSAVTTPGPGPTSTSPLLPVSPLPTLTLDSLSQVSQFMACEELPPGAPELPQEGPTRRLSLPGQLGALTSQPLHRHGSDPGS
Excerpt: hERG inhibition was additionally determined in whole-cell patch-clamp experiments on HEK293 cells stably expressing the channel, as previously described.[55]

Cc1[nH]c(C(=O)Nc2nc3c(N4CCOCC4)cc(C(=O)O)cc3s2)c(Cl)c1Cl [7a, 2-(3,4-Dichloro-5-methyl-1H-pyrrole-2-carboxamido)-4-morpholinobenzo[d]thiazole-6-carboxylic Acid]
solubility ([1]; 100 mM carbonate buffer with 20% CD, pH 8.0, 20% CD): 3800 µg/mL (≈ 8.35 mM) | solubility ([1]; 100 mM carbonate buffer, pH 9.0, 20% hydroxypropyl β-cyclodextrin): 13200 µg/mL (≈ 29 mM) | MIC ([2]; PAO1, P. aeruginosa PAO1): > 64 µg/mL | MIC ([2]; PAO1, P. aeruginosa PAO750, efflux-defective): 0.25 µg/mL (≈ 0.000549 mM) | Clint (pred. in vivo) (in vitro; human): 630 mL/min | half-life at 1 h, 1 µM (in vitro; human): 1.72 h | ClH (pred.) (in vitro; human): 14 mL/min | Epred (in vitro; human): 0.01 | Clint (pred. in vivo) (in vitro; mouse): 1.3 mL/min | half-life at 1 h, 1 µM (in vitro; mouse): 1.45 h | ClH (pred.) (in vitro; mouse): 0.03 mL/min | Epred (in vitro; mouse): 0.01 | hERG inhibition (current reduction) (hERG channel): 0 ± 12%
